Results reported in US10259804B2, “Anti-endothelial lipase compounds and methods of using the same in the treatment and/or prevention of cardiovascular diseases” (Shifa Biomedical Corporation, priority 2014, dated 2019).

Experiments:
Assay type in all cases: biochemical
[1] = molecular target: T1, human full-length EL (endothelial lipase) (Homo sapiens, UniProt Q9Y5X9); experiment: EL inhibition assay using cell extracts of HEK293/EL transfected cells; settings: compound 0.001-200 μM, means of three experiments
T1 construct: We have cloned the human full-length EL, LPL, HL and PL; made in house; host or cells: HEK-293, transient transfection; cell extracts used
T1 sequence (Q9Y5X9 21-500): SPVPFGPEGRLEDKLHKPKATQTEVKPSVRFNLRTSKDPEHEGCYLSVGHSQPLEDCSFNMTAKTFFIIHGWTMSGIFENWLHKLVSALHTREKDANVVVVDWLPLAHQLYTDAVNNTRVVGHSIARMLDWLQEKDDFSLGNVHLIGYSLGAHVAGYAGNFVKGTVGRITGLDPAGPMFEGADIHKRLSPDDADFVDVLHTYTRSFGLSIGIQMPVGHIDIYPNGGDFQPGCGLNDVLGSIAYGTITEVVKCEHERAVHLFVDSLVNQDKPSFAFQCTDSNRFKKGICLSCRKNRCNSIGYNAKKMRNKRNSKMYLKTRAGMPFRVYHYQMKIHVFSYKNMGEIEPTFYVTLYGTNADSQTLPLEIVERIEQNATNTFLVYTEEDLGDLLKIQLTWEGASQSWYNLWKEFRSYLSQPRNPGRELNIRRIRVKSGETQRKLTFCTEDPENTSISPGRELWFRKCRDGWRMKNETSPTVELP
Method: (§1) Preparation of constructs: We have cloned the human full-length EL, LPL, HL and PL. The cDNA encoding the EL, LPL, HL and PL sequence was cloned by PCR and subcloned into a mammalian expression vector containing the cytomegalovirus promoter-enhancer. The constructs were confirmed by sequence analysis.
(§2) Expression of EL, LPL, HL and PL in mammalian cells: The above constructs were used to transfect HEK-293 cells. The cells were seeded into T75 plates in a DMEM solution containing 10% Fetal Bovine Serum media and incubated overnight at 37° C. Cells were transiently transfected with various cDNA constructs using the Lipofectamine-LTX as described by the manufacturer (Invitrogen). After transfection, cells were then incubated for an additional 48 hours at 37° C. before being analyzed for expression. After 48 hours of incubation, following transfection, cells were collected for analysis by western blots for the expression of EL, LPL, HL and PL.
EL screening assay: We developed and implemented two assays (a) in assay one the HDL-C functions as a substrate for the assay. This assay measures the rate of HDL hydrolysis by EL that yields free fatty acids, which are then coupled through acyl-CoA synthetase, acyl-CoA oxidase and horseradish peroxidase to produce the fluorescent species, resorufin; (b) in assay two PED-A1, a novel fluorogenic phospholipase A1-selective substrate was used for EL measurements. […] Assay one was used for initial screening, while assay two was used for secondary screening and EL kinetics.
Characterization of the Hits: A library of compounds that modified both the urea and sulfonamide substituents on the 5-methyl furan were synthesized. The library was extensively analyzed for EL potency, and then the data was utilized to further optimize the compounds. Seven compounds were selected for potency, kinetic and selectivity confirmation.
In order to determine the Ki value, we used variable concentrations of the compound and variable substrate concentrations.

[2] = molecular target: T2, human full-length PL (pancreatic lipase) (Homo sapiens, UniProt P16233); experiment: PL selectivity assay (phospholipase kit, resorufinoleate substrate); settings: even at 200 uM compound concentration
T2 construct: We have cloned the human full-length EL, LPL, HL and PL; made in house; host or cells: HEK-293, transient transfection
T2 sequence (P16233 17-465): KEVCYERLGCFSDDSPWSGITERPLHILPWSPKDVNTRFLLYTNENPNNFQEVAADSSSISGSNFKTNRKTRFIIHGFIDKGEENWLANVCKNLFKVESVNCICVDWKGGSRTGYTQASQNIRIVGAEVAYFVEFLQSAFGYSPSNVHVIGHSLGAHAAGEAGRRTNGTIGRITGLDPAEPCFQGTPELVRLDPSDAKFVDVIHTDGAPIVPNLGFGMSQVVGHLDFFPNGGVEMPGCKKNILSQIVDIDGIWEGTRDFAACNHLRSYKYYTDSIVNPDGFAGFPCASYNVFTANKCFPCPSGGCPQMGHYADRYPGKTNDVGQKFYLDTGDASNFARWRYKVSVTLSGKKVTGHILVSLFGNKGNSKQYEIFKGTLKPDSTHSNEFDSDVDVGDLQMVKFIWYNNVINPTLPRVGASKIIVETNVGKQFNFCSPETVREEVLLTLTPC
Method: as §1, §2
(§3) LPL, PL and HL selectivity assays: For measuring LPL, PL and HL activity, we used the commercially available phospholipase kit (MGT). The activity of the substrate, resorufinoleate is quite good for both phospholipase A1 and phospholipase A2, and therefore is ideal for LPL, PL and HL. Since the substrate is quite general for other lipases such as triacylglycerol lipases or lipoprotein lipases, we utilized our recombinant system and cell specific expression system to achieve the desired specificity. The LPL, PL and HL enzyme activity measurements were conducted using a 96-well microtiter plate. All appropriate controls were implemented.
(§4) Experiments were also performed to determine the specificity of our best compounds against the most closely related homologues, LPL, PL and HL.

[3] = molecular target: T3, human full-length LPL (lipoprotein lipase) (Homo sapiens, UniProt P06858); experiment: LPL selectivity assay (phospholipase kit, resorufinoleate substrate); settings: even at 200 uM compound concentration
T3 construct: We have cloned the human full-length EL, LPL, HL and PL; made in house; host or cells: HEK-293, transient transfection
T3 sequence (P06858 28-475): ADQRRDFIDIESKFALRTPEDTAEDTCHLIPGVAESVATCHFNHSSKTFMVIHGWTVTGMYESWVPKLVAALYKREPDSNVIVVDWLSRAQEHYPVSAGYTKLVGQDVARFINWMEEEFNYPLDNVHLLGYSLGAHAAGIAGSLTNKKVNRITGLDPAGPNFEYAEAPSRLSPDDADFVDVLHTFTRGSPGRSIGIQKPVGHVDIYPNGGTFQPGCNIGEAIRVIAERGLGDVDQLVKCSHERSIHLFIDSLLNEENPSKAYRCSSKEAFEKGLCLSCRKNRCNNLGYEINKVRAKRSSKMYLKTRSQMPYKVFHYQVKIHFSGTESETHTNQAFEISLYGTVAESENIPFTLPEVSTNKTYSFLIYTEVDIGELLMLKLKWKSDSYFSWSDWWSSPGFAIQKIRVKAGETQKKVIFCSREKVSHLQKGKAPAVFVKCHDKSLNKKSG
Method: as §1, §2, §3, §4

[4] = molecular target: T4, human full-length HL (hepatic lipase) (Homo sapiens, UniProt P11150); experiment: HL selectivity assay (phospholipase kit, resorufinoleate substrate); settings: even at 200 uM compound concentration
T4 construct: We have cloned the human full-length EL, LPL, HL and PL; made in house; host or cells: HEK-293, transient transfection
T4 sequence (P11150 23-499): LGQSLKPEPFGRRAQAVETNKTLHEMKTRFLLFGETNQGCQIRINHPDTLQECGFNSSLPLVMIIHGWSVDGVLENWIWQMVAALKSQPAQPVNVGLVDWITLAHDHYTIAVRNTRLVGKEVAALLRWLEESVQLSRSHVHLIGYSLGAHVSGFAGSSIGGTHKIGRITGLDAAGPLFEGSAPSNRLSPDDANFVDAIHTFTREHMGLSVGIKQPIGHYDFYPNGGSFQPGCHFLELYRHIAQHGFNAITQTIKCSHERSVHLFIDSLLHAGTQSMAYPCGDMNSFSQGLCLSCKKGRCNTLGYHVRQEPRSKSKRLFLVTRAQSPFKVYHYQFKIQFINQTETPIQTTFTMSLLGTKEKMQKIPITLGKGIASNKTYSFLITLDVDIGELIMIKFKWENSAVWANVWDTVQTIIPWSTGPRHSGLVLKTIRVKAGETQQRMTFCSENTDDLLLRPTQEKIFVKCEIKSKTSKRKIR
Method: as §1, §2, §3, §4

Compound	IC50 [1]	inhibition against PL activity [2]	inhibition against LPL activity [3]	inhibition against HL activity [4]
Cc1ccccc1NC(=O)Nc1cc(S(=O)(=O)N2CCC(C(F)(F)F)CC2)oc1C [SBC-140,466]	62 nM	no inhibition	no inhibition	no inhibition
Cc1oc(S(=O)(=O)N2CCC(C(F)(F)F)CC2)cc1NC(=O)NC(c1ccccc1)C(F)(F)F (stereo not drawn) [SBC-140,472]	79 nM	no inhibition	no inhibition	no inhibition
COC1CCN(S(=O)(=O)c2cc(NC(=O)NCc3ccccc3C(F)(F)F)c(C)o2)CC1 [SBC-140,460]	19 nM	no inhibition	no inhibition	no inhibition
